Measurements reported in US20090274773A1, “ANTIPROLIFERATIVE COMBINATION COMPRISING CYC-682 AND A CYTOTOXIC AGENT” (Cyclacel Limited, priority 2005, published 2009).
Read-outs that look alike come from different tables or passages of the source.

What was measured:
Type in all cases: cell-based, human
HCT116 = assay: MTT growth inhibition assay, single agent; conditions: read-out: Antiproliferative effects IC50s (MTT assay)
Experimental: (§1) All cell lines were obtained from the ATCC (Rockville, Md.). Cells were grown as monolayers in RPMI medium supplemented with 10% fetal calf serum (Invitrogen, Cergy-Pontoise, France), 2 mM glutamine, 100 units/ml penicillin and 100 μg/ml streptomycin. All cells were split twice a week using trypsin/EDTA (0.25% and 0.02%, respectively; Invitrogen, Cergy-Pontoise, France) and seeded at a concentration of 2.5×10^4 cells/ml. All cell lines were tested regularly for Mycoplasma contamination by PCR using a Stratagene kit (La Jolla, Calif.).
(§2) The MTT assay was carried out as described previously (Hansen M B, Nielsen S E, Berg K. Re-examination and further development of a precise and rapid dye method for measuring cell growth/cell kill. J Immunol Methods. 1989 May 12; 119(2):203-10). In brief, cells were seeded in 96-well tissue culture plates at a density of 2×10^3 cells/well. Cell viability was determined after a 120-hour incubation, by the calorimetric conversion of yellow, water-soluble tetrazolium MTT (3-[4,5-dimethylthiazol-2-yl]-2,5-diphenyltetrazolium bromide; Sigma, Saint-Quentin Fallavier, France), into purple, water-insoluble formazan. This reaction is catalyzed by mitochondrial dehydrogenases and is used to estimate the relative number of viable cells (Mosmann, T, Rapid calorimetric assay for cellular growth and survival: application to proliferation and cytotoxicity assays. J Immunol Methods. 1983 Dec. 16; 65 (1-2):55-63). Cells were incubated with 0.4 mg/ml MTT for 4 hours at 37° C. After incubation, the supernatant was discarded, the cell pellet was resuspended in 0.1 ml of DMSO and the absorbance was measured at 560 nm using a microplate reader (Dynatech, Michigan). Wells with untreated cells or with drug-containing medium without cells were used as positive and negative controls, respectively. Growth inhibition curves were plotted as a percentage of untreated control cells.
(§3) The cells were seeded at 2×10^3 cells/well in 96-well plates and treated 24 hours later with increasing concentrations of CYC682. After incubation times of 1 hour, 24 hours or 48 hours, the cells were washed and post-incubated in drug-free medium for 72 hours. Growth inhibition was then determined by the MTT assay.

MCF7 = assay: MTT growth inhibition assay, single agent; conditions: 24 hours exposure, read-out: Antiproliferative effects IC50s (MTT assay)
Experimental: as §1, §2, §3

HOP92 = assay: MTT growth inhibition assay, single agent; conditions: read-out: Antiproliferative effects IC50s (MTT assay)
Experimental: as §1, §2, §3

HOP62 = assay: MTT growth inhibition assay, single agent; conditions: read-out: Antiproliferative effects IC50s (MTT assay)
Experimental: as §1, §2, §3

COLO205 = assay: MTT growth inhibition assay, single agent; conditions: read-out: Antiproliferative effects IC50s (MTT assay)
Experimental: as §1, §2, §3

MDA-MB-435 = assay: MTT growth inhibition assay, single agent; conditions: 24 hours exposure, read-out: Antiproliferative effects IC50s (MTT assay)
Experimental: as §1, §2, §3

OVCAR1 = assay: MTT growth inhibition assay, single agent; conditions: 24 hours exposure, read-out: Antiproliferative effects IC50s (MTT assay)
Experimental: as §1, §2, §3

HCC2998 = assay: MTT growth inhibition assay, single agent; conditions: read-out: Antiproliferative effects IC50s (MTT assay)
Experimental: as §1, §2, §3

IGROV1 = assay: MTT growth inhibition assay, single agent; conditions: read-out: Antiproliferative effects IC50s (MTT assay)
Experimental: as §1, §2, §3

HT29 = assay: MTT growth inhibition assay, single agent; conditions: read-out: Antiproliferative effects IC50s (MTT assay)
Experimental: as §1, §2, §3

NSCLC cell line H1299 = assay: CNDAC combinations (alamar blue, Calcusyn Combination Index); conditions: for Combination Index at ED75, CNDAC pretreatment / Combination Index at ED90, CNDAC pretreatment / Combination Index at ED50, CNDAC pretreatment / Combination Index at ED50, Other (named agent) pretreatment / Combination Index at ED75, Other (named agent) pretreatment / Combination Index at ED90, Other (named agent) pretreatment / Combination Index at ED50, Concomitant / Combination Index at ED75, Concomitant / Combination Index at ED90, Concomitant: named agent in combination with CNDAC; for Combination Index at ED75, CNDAC pretreatment / Combination Index at ED90, CNDAC pretreatment / Combination Index at ED50, CNDAC pretreatment: CNDAC 24 h then other agent 72 h; for Combination Index at ED50, CNDAC pretreatment: C.I. <1 synergistic, 1 additive, >1 antagonistic; for Combination Index at ED50, Other (named agent) pretreatment / Combination Index at ED75, Other (named agent) pretreatment / Combination Index at ED90, Other (named agent) pretreatment: named agent 24 h then CNDAC 72 h; for Combination Index at ED50, Concomitant / Combination Index at ED75, Concomitant / Combination Index at ED90, Concomitant: simultaneous treatment 72 h
Experimental: Experiments in the NSCLC cell lines H1299 or RERF-LC-MA were performed in 96-well plates, with cells seeded at a density of 3,000/well, in DMEM containing 10% (v/v) FCS. Stock solutions of all drugs were made up in dimethylsulfoxide (DMSO), with the exception of gemcitabine, which was dissolved in 0.9% (w/v) sterile saline solution.
For experimental assessment of potential synergistic interactions, the concomitant treatment regime involved simultaneous treatment of cells with CNDAC and the other agent under investigation for 72 h, alongside suitable controls of cells treated with the individual compounds alone for 72 hr. In the sequential treatment regimes, one drug was added to the cells 2 h after plating, and left for 24 h. Media was then aspirated, replaced with fresh media containing the second drug and incubated for 72 h. The two individual treatment controls for the sequential treatment regime involved substituting one of the drug treatments with drug-free media. […] Drug interactions were analysed using the Calcusyn software package (BioSoft, Cambridge, U.K.) described below.

COLO205 cancer cell line = assay: CYC682 drug-combination study (MTT, Chou and Talalay combination index, isobolograms); conditions: COLO205; CYC682 given prior to named agent
Experimental: (§4) For simultaneous drug exposure, cells were seeded at 2×10^3 cells/well in 96-well plates and treated 24 hours later with increasing concentrations of CYC682 alone or with various concentrations of another drug corresponding to the IC20, IC40 or IC60 values. After approximately four doubling times (120 hours), the growth inhibitory effect was measured by the MTT assay.
(§5) Cells were seeded at 2×10^3 cells/well in 96-well plates and allowed to grow for 24 hour. Cells were then exposed to various concentrations of the first drug for 1 hour/24 hours/48 hours, the drug was removed, the cells were washed and the second drug was added. After additional drug exposure, the second drug was removed, the cells were washed and incubated in drug-free medium for 72 hours. Growth inhibition was then determined by the MTT assay.
(§6) Effects of drug combinations were evaluated using the Chou and Talalay method which is based on the median-effect principle (Chou T C, Talalay P. Quantitative analysis of dose-effect relationships: the combined effects of multiple drugs or enzyme inhibitors. Adv Enzyme Regul. 1984; 22:27-55). […] On the basis of the slope of the curve for each drug in a combination, it can be determined whether the drugs have mutually nonexclusive effects (e.g., independent or interactive modes of action).
(§7) The combination index (CI) is then determined by the equation:
(§8) CI=[(C)1/(Cx)1]+[(C)2/(Cx)2]+[α(C)1(C)2/(Cx)1(Cx)2],
(§9) where (Cx)1 is the concentration of drug 1 required to produce an x percent effect of that drug alone, and (C)1, the concentration of drug 1 required to produce the same x percent effect in combination with (C)2. If the mode of action of the drugs is mutually exclusive or nonexclusive, then α is 0 or 1, respectively. CI values will be calculated with this equation using different values of fa (i.e., for different degrees of cell growth inhibition). CI values of <1 indicate synergy, the value of 1 indicates additive effects, and values >1 indicate antagonism. Data were analyzed on an IBM-PC computer using concentration-effect analysis for microcomputer software (Biosoft, Cambridge, UK). For statistical analysis and graphs we will use Instat and Prism software (GraphPad, San Diego, USA). The dose-effect relationships for the drugs tested, alone or in paired combinations, were subjected to median-effect plot analysis to determine their relative potency (IC50), shape (m), and conformity (r) in each selected cell line. As stated above, the IC50 and m values were respectively used to calculate synergism and antagonism on the basis of the CI equation. Results were expressed as the mean±standard deviation of at least 3 experiments performed in duplicate. In each experiment, cells were exposed to the paired combinations for 48 hours as described above. Means and standard deviations were compared using Student's t-test (two-sided p value).
(§10) The effect of sequential and simultaneous exposure (FIG. 2) to CYC682 with oxaliplatin, doxorubicin, docetaxel and gemcitabine was studied in two sensitive colon cancer cell lines—COLO205 and HCT116 using combination indices that represent an affected fraction for the concentration of drugs corresponding to IC50 as previously described by Chou and Talalay.

HCT116 cancer cell line = assay: as above; conditions: HCT116
Experimental: as §4, §5, §6, §7, §8, §9, §10

[1] = Homo sapiens, HCT-116, 24 hours exposure
[2] = Homo sapiens, HOP-92, 24 hours exposure
[3] = Homo sapiens, HOP-62, 24 hours exposure
[4] = Homo sapiens, COLO 205, 24 hours exposure
[5] = Homo sapiens, HCC 2998, 24 hours exposure
[6] = Homo sapiens, IGROV-1, 24 hours exposure
[7] = Homo sapiens, HT-29, 24 hours exposure

SMILES | IC50 (HCT116; [1]) [µM] | IC50 (MCF7; Homo sapiens) [µM] | IC50 (HOP92; [2]) [nM] | IC50 (HOP62; [3]) [µM] | IC50 (COLO205; [4]) [µM] | IC50 (MDA-MB-435; Homo sapiens) [µM] | IC50 (OVCAR1; Homo sapiens) [µM] | IC50 (HCC2998; [5]) [µM] | IC50 (IGROV1; [6]) [µM] | IC50 (HT29; [7]) [µM] | Combination Index at ED75, CNDAC pretreatment (NSCLC cell line H1299; H1299) | Combination Index at ED90, CNDAC pretreatment (NSCLC cell line H1299; H1299) | Combination Index at ED50, CNDAC pretreatment (NSCLC cell line H1299; H1299) | Combination Index at ED50, Other (named agent) pretreatment (NSCLC cell line H1299; H1299) | Combination Index at ED75, Other (named agent) pretreatment (NSCLC cell line H1299; H1299) | Combination Index at ED90, Other (named agent) pretreatment (NSCLC cell line H1299; H1299) | Combination Index at ED50, Concomitant (NSCLC cell line H1299; H1299) | Combination Index at ED75, Concomitant (NSCLC cell line H1299; H1299) | Combination Index at ED90, Concomitant (NSCLC cell line H1299; H1299) | IC50 (HCT116; 24 hours exposure) [µM] | other results
O=c1[nH]cc(F)c(=O)[nH]1 [5-FU, 5-fluorouracil] | 5.3 ± 1.3 | 10 ± 1 | 11000 ± 1000 | 118 ± 32 | 240 ± 20 | 10 ± 2 | 24 ± 1 | 10 ± 1 | 29 ± 1 | 24 ± 1 |  |  |  |  |  |  |  |  |  |  | 
Nc1ccn([C@@H]2O[C@H](CO)[C@H](O)[C@@H]2O)c(=O)n1 [Ara-C, 4-amino-1-[(2R,3S,4R,5R)-3,4-dihydroxy-5-(hydroxymethyl)oxolan-2-yl]pyrimidin-2-one] | 1.2 ± 0.4 | > 300 | 1300 ± 300 | 6.3 ± 2.8 | 28 ± 8 | 38 ± 9 | > 300 | 3.7 ± 0.5 | 89 ± 21 | 130 ± 40 |  |  |  |  |  |  |  |  |  |  | 
N.N.[Cl][Pt][Cl] [Cisplatin, cis-diamminedichlorplatinum (II)] |  |  |  |  |  |  |  |  |  |  | 1.5 | 13.68 | 1.16 | 0.65 | 0.93 | 1.96 | 0.77 | 1.65 | 7.56 | 9.2 ± 0.9 | Interaction with CNDAC at ED50 (in words) (NSCLC cell line H1299; H1299, concomitant treatment): weak synergy; Interaction with CNDAC at ED50 (in words) (NSCLC cell line H1299; H1299, pre-treatment with named agent): synergy; Interaction with CNDAC (in words), summary of Table 3 (NSCLC cell line H1299; combination with CNDAC, regime not specified): synergistic drug interactions; IC50 (MCF7): 32 ± 2 µM; IC50 (HOP92; 24 hours exposure): 4400 ± 400 nM; IC50 (HOP62; 24 hours exposure): 9.3 ± 0.9 µM; IC50 (COLO205; 24 hours exposure): 9.5 ± 2.5 µM; IC50 (MDA-MB-435): 13 ± 2.6 µM; IC50 (OVCAR1): 12.1 ± 3.93 µM; IC50 (HCC2998; 24 hours exposure): 25 ± 5 µM; IC50 (IGROV1; 24 hours exposure): 26 ± 6 µM; IC50 (HT29; 24 hours exposure): 25 ± 3 µM
O=C(O)C(=O)O.[NH-][C@@H]1CCCC[C@H]1[NH-].[Pt+2] [Oxaliplatin] |  |  |  |  |  |  |  |  |  |  |  |  |  |  |  |  |  |  |  | 20 ± 4 | IC50 (MCF7): 35 ± 7 µM; IC50 (HOP92; 24 hours exposure): 1400 ± 200 nM; IC50 (HOP62; 24 hours exposure): 200 ± 40 µM; IC50 (COLO205; 24 hours exposure): 8 ± 1.6 µM; IC50 (MDA-MB-435): 37 ± 21 µM; IC50 (OVCAR1): 50 ± 10 µM; IC50 (HCC2998; 24 hours exposure): 4 ± 1.4 µM; IC50 (IGROV1; 24 hours exposure): 107 ± 21 µM; IC50 (HT29; 24 hours exposure): 60 ± 12 µM; Interaction with CYC682 (isobologram) (COLO205 cancer cell line): synergy; Interaction with CYC682 (isobologram) (HCT116 cancer cell line; CYC682 given prior to named agent): synergistic activity; Interaction with CYC682 (isobologram) (HCT116 cancer cell line; named agent given prior to CYC682): synergistic activity
CCC1=C[C@@H]2CN(C1)Cc1c([nH]c3ccccc13)[C@@](C(=O)OC)(c1cc3c(cc1OC)N(C)[C@H]1[C@@](O)(C(=O)OC)[C@H](OC(C)=O)[C@]4(CC)C=CCN5CC[C@]31[C@@H]54)C2 [Vinorelbine] |  |  |  |  |  |  |  |  |  |  | 0.67 | 0.67 | 1.04 | 0.60 | 0.56 | 0.66 | 0.63 | 0.97 | 2.25 |  | Interaction with CNDAC (in words) (NSCLC cell line H1299; H1299, all three of the treatment regimes tested): synergy
